Assay results reported in publication PMC12254355 (Nature Communications, 2025).
Ends that are not written are not given here.

Experiments:
E. coli ATCC 11775 = conditions: ATCC 11775, 24 h
E. coli AIC221 = conditions: AIC221, 24 h
K. pneumoniae ATCC 13883 = conditions: ATCC 13883, 24 h
[1] = tested on: E. faecium ATCC 700221 - VRE; conditions: ATCC 700221, 24 h
HEK293T cells = conditions: for CC50 vs HEK293T cells (source data of Figure 4a): 24 h
human red blood cells = conditions: pH 7.4
A. baumannii ATCC 19606 = conditions: ATCC 19606, 24 h
P. aeruginosa PAO1 = conditions: PAO1, 24 h
P. aeruginosa PA14 = conditions: PA14, 24 h

| Sequence | Minimal Inhibitory Concentration, E. coli ATCC 11775 (-) (E. coli ATCC 11775) [µmol/L] | Minimal Inhibitory Concentration, E. coli AIC221 (-) (E. coli AIC221) [µmol/L] | Minimal Inhibitory Concentration, K. pneumoniae ATCC 13883 (-) (K. pneumoniae ATCC 13883) [µmol/L] | Minimal Inhibitory Concentration, E. faecium ATCC 700221 - VRE (+) [1] [µmol/L] | SIcytotoxicity (HEK293T cells) | CC50 vs HEK293T cells (source data of Figure 4a) (HEK293T cells) [µM] | HC50 (human red blood cells) | Minimal Inhibitory Concentration, A. baumannii ATCC 19606 (-) (A. baumannii ATCC 19606) [µmol/L] | Minimal Inhibitory Concentration, P. aeruginosa PAO1 (-) (P. aeruginosa PAO1) [µmol/L] | Minimal Inhibitory Concentration, P. aeruginosa PA14 (-) (P. aeruginosa PA14) [µmol/L] | CC50 vs HEK293T cells (HEK293T cells) [µM] |
| --- | --- | --- | --- | --- | --- | --- | --- | --- | --- | --- | --- |
| KFSVFSKILRSIAKVFKGVGKVRK [Arachnoserver-27] | 32 | 8 | 4 | 8 | 2.0 | 7.976 | 24.2 |  |  |  |  |
| KIKWFKTMKSLAKFLAK [Arachnoserver-33] | 8 | 4 | 4 | 32 | 8.0 |  | 144.1 | 8 | 32 | 8 |  |
| KIKWLKAMKSIAKFIAKK [Arachnoserver-5] | 2 | 2 | 2 | 8 | 7.0 | 13.96 | 46.7 | 8 | 4 | 2 |  |
| KLKKLRKWIYRIV [UniprotKB-8] | 16 |  | 64 | 16 | 3.5 | 27.64 | 636.4 | 32 |  |  |  |
| KNKRFIRNLRSNLYQKIIKSTKSLL [Arachnoserver-9] | 16 | 8 | 16 | 16 | 2.9 | 23.56 | 4947.0 | 32 | 16 | 16 |  |
| KNKRFIRNLRSNLYQKIIKSTKSLL [UniprotKB-14] | 32 | 8 | 32 | 32 | 5.7 | 45.94 | 7.733e+045 |  | 32 | 32 |  |
| KRFIRNLRSNLYQKIIKSTKSLLDLREKI [Arachnoserver-17] | 64 | 8 | 4 |  | 4.1 | 16.47 | 280.5 |  |  |  |  |
| KWLKAMKSIAKFIAKKQMKKHL [Arachnoserver-32] |  | 64 | 16 | 4 | 1.9 | 7.568 | 19.2 |  | 8 | 16 | 8 |
| KYRRGVSPWLKKELVRLHNNLRSKVAGGK [Arachnoserver-31] | 8 | 4 | 4 | 16 | 3.2 | 12.67 | 1392.0 |  |  | 64 | 13 |
| LKLKSILGKLGVIL [UniprotKB-4] |  |  | 64 |  | 0.7 | 10.49 | 3.938e+054 | 64 |  |  | 10 |
| RKFKWGKLFSTAKKLYKKGKKLSKNKNFKKALK [UniprotKB-12] | 32 | 2 |  | 32 | 11.9 | 23.71 | 604.3 | 64 | 4 | 4 |  |
| RKFKWGSFKKILSAGKKLFKKAKKLSK [Arachnoserver-2] | 8 | 1 |  | 8 | 9.9 | 9.929 | 108.1 | 32 | 4 | 4 | 10 |
| RKFKWGSFKKILSAGKKLFKKAKKLSKNKNFKKALK [Arachnoserver-6] | 32 | 4 |  | 8 | 1.3 | 5.173 | 12.1 | 64 | 4 | 4 | 5 |
| RRVKRFKKFFMKLKKSVKKRVMKFFK [UniprotKB-5] | 32 | 32 |  | 8 | 1.1 | 8.885 | 103.8 | 64 | 8 | 8 | 9 |
| VNSFKIGGFIKKLWRSKLAKKLRAK [UniprotKB-19] | 64 | 16 |  | 4 | 10.2 | 40.64 | 625.9 | 64 | 8 | 16 |  |
